Source: patent US6720324B2, “Selective melanin concentrating hormone-1 (MCH1) receptor antagonists and uses thereof” (Synaptic Pharmaceutical Corporation, priority 2000, dated 2004)
Read-outs that look alike come from different tables or passages of the source.

Tests used:
human MCH1 receptor [1] = target: T1, human MCH1 receptor (Homo sapiens, UniProt Q99705); experiment: Functional assay: intracellular calcium mobilization (antagonist potency Kb); format: cell-based; design: expressed in transfected cells; host or cells: COS-7 cells, transient, DEAE-dextran, plasmid pEXJ.HR-TL231 (ATCC 203197)
Experimental: Intracellular calcium mobilization assays for the MCH1 receptor were carried out using plasmid pEXJ.HR-TL231 (ATCC Accession No. 203197). COS-7 cells were transiently transfected with DNA encoding the MCH1 receptor utilizing the DEAE-dextran method as described above. The intracellular free calcium concentration was measured by fluorescent imaging using the calcium sensitive fluorscent dye Fluo-3. COS-7 cells expressing the human MCH1 receptor were seeded onto sterile 96 well plates, washed with Hank's balanced salt solution (HBSS), containing 20 mM HEPES, 2.5 mM probenecid, and 0.1% BSA, and loaded with the same buffer containing 3.8 μM Fluo-3 for 1 hour at 37° C. After washing with HBSS to remove the fluo-3 solution, cells were equilibrated for 10 minutes.

human MCH1 receptor [2] = target: T1, human MCH1 receptor; experiment: Radioligand competition binding with [3H]Compound 10, membranes of A293 cells; conditions: Table 3, A293 cell membranes, [3H]Compound 10 as radioligand, read-out: hMCH1 * Ki
Experimental: (§1) For binding assays, pellets of transfected cells are suspended in ice-cold buffer (20 mM Tris.HCl, 5 mM EDTA, pH 7.4) and homogenized by sonication for 7 sec. The cell lysates are centrifuged at 200×g for 5 min at 4° C. The supernatants are then centrifuged at 40,000×g for 20 min at 4° C. The resulting pellets are washed once in the homogenization buffer and suspended in binding buffer (see methods for radioligand binding). Protein concentrations are determined by the method of Bradford (1976) using bovine serum albumin as the standard. Binding assays are usually performed immediately, however it is possible to prepare membranes in batch and store frozen in liquid nitrogen for future use.
Radioligand binding assays for the MCH1 receptor were carried out using plasmid pEXJ.HR-TL231 (ATCC Accession No. 203197). Plasmid pEXJ.HR-TL231 comprises the regulatory elements necessary for expression of DNA in a mammalian cell operatively linked to DNA encoding the human MCH1 receptor so as to permit expression thereof. Plasmid pEXJ.HR-TL231 was deposited on Sep. 17, 1998, with the American Type Culture Collection (ATCC), 12301 Parklawn Drive, Rockville, Md. 20852, U.S.A. under the provisions of the Budapest Treaty for the International Recognition of the Deposit of Microorganisms for the Purposes of Patent Procedure and was accorded ATCC Accession No. 203197. […]

human GALR1 = target: T2, human GALR1 (Homo sapiens, UniProt P47211); experiment: Radioligand binding assay, cloned receptor; conditions: read-out: hGALR1 Ki
T2 construct: expressed in transfected cells
T2 sequence (P47211 1-349): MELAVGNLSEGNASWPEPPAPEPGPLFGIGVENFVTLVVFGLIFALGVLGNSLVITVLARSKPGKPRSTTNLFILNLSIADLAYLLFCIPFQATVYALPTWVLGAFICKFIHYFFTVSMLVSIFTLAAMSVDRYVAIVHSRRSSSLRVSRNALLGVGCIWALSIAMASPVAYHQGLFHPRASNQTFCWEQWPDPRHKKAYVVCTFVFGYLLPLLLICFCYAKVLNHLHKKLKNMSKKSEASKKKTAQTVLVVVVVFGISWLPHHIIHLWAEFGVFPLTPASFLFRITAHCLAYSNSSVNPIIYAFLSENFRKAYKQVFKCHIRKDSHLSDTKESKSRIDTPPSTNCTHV
Experimental: as §1
The methods to obtain the cDNA of the human NPY1, NPY5, GALR1, GALR2, and GALR3 and rat 5-HT2C receptors, express said receptors in heterologous systems, and carry out assays to determine binding affinity are described in the following publications and above: human NPY1 (Larhammar et al., 1992), human NPY5 (U.S. Pat. No. 5,602,024, the disclosure of which is hereby incorporated by reference in its entirety into this application), human Gal1 (Habert-Ortoli et al., 1994), human Gal2 (Smith et al., 1997), human Gal3 (Smith et al., 1998), and rat 5-HT2C (Julius et al., 1988).

T1 sequence (Q99705 whole entry): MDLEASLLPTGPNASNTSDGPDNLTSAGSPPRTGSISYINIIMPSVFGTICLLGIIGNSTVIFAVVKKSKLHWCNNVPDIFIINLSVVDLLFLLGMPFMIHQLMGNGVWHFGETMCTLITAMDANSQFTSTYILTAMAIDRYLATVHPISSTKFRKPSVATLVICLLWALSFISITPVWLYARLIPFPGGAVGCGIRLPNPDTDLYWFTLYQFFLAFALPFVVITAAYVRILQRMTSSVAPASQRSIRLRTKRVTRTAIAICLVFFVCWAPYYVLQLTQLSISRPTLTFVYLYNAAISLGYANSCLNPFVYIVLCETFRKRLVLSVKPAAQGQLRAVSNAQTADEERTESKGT

## 2-(3,4-DIFLUOROPHENYL)4,5-DIHYDROIMIDAZOLE-1-CARBOXYLIC ACID {3-[4-PHENYL-4-(4-BROMO-5-METHYLTHIOPNEN-2-YL)]PROPYL}-AMIDE [Example 19]
Human MCH1 receptor [1]; Table 1, cloned human MCH1 receptor, functional assay, read-out: Kb (nM) hMCH1
  Kb: 7 nM
Human MCH1 receptor [1]; Table 2, antagonist potency at the human MCH1 receptor, read-out: hMCH1 Kb
  Kb: 7 nM
Human MCH1 receptor [1]; Table 3, antagonist potency at the human MCH1 receptor, read-out: hMCH1 Kb
  Kb: 7 nM
Human MCH1 receptor [2]
  Ki: 3 nM
Human GALR1; Table 2
  Ki: > 50000 nM
Human GALR1; Table 3
  Ki: > 50000 nM
